Experimental findings from ChEMBL document CHEMBL1157497, “Theoretical studies on the structure and symmetry of the transmembrane region of glutamatergic GluR5 receptor” (J Med Chem, 2008) are described below.

Assay [1] can be described thus: Inhibition of NMDA receptor.
The target in assay [2] is Glutamate NMDA receptor; GRIN1/GRIN2B (Homo sapiens, UniProt Q05586+Q13224). Put plainly: Antagonist activity at NR1/2B receptor expressed in xenopus laevis at pH 6.9 by two electrode voltage clamp method. The format is functional.

What is called IC50 is the concentration that gives 50% inhibition. A low value points to greater potency.

The structures appear in SMILES notation.

Sequence of Glutamate NMDA receptor; GRIN1/GRIN2B (Q13224 whole entry, other chains not shown): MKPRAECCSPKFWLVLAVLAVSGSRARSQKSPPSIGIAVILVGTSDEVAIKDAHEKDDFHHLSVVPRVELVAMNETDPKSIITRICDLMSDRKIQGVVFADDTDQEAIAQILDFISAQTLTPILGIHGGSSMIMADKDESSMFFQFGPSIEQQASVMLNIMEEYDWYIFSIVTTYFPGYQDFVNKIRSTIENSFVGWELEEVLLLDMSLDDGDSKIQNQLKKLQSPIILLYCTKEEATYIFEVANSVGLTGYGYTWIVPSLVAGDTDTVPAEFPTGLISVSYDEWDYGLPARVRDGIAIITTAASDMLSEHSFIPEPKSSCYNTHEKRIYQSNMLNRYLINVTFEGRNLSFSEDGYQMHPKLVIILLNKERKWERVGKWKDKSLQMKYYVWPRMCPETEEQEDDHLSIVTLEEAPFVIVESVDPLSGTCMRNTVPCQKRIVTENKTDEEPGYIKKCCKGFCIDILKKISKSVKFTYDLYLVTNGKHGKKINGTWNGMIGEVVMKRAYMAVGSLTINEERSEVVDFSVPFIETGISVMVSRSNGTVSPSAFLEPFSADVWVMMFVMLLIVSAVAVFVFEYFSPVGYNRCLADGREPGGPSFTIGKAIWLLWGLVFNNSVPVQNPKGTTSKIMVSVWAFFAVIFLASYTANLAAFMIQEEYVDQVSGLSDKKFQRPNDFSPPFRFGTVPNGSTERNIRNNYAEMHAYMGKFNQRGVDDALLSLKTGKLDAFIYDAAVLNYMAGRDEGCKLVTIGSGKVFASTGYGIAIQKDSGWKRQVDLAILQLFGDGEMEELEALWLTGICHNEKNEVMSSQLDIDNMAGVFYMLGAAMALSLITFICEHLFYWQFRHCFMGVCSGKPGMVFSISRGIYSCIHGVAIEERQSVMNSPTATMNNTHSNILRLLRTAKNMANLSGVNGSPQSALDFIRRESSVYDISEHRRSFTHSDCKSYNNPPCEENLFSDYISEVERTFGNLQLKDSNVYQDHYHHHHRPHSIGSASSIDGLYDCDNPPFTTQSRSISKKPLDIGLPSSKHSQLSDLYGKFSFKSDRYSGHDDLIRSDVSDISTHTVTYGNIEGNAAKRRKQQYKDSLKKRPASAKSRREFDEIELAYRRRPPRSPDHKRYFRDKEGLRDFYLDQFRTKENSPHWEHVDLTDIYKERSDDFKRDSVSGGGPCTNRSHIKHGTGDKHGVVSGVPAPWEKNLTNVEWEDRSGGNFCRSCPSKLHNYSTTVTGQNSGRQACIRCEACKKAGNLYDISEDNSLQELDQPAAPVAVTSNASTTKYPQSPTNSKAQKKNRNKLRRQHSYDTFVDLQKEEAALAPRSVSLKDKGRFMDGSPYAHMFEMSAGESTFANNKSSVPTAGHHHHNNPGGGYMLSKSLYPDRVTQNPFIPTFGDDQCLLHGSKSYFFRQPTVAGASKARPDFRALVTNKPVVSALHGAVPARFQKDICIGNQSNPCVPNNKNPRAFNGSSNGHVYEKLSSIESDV

In turn, `NCCCCCNC1(c2ccccc2)CCCCC1` displayed a half-inhibitory concentration (IC50) in assay [1] of 2100 nM.
Take `CN1CC[C@@]23CCCC[C@@H]2[C@@H]1Cc1ccc(O)cc13` [DEXTRORPHAN]: the IC50 in assay [2] amounted to 246 nM.
